# Experimental data reported in patent publication US20260221281A1, “PREDICTING PATIENT OUTCOMES RELATED TO PANCREATIC CANCER” (Valar Labs, Inc., priority 2023, published 2026).
# What was measured:
# Assay type in all cases: in vivo, human
# [1] = system: resected pancreatic ductal adenocarcinoma (PDAC); test: DSS and time to recurrence after adjuvant gemcitabine in resected PDAC, external cohort stratified by VPG signature; conditions: for median time to recurrence: adjuvant gemcitabine-based therapy (n=46)
# Description: The first external data set represented a set of consecutive 24 patients treated with resection and adjuvant gemcitabine. Clinical data was obtained via manual chart review of the electronic medical record. Digitally scanned tissue microarray specimens were used for image analysis. The cores were 1 mm and were obtained from formalin-fixed, paraffin-embedded (FFPE) samples of extra portions of surgical resections. Whole tissue resection specimens were not available for analysis for this study. Scanned histologic images were analyzed through an AI-based pathology platform in accordance with the systems and methods described herein. The process included tissue segmentation, nuclei segmentation, and finally geometric feature extraction. Tissue was segmented via color-based thresholding to remove empty regions of the slide. Patches of size 2132×2132 were extracted from tissue regions and a validated deep learning model developed was used to segment and classify each nucleus automatically into five classes (i.e., Neoplastic, Connective, No-Neoplastic/Epithelial, Necrotic, Inflammatory). Descriptive morphometric features were then computed for each nucleus. Geometric features were then aggregated first at the patch, and subsequently at the patient level using summary statistics including the mean, standard deviation, skewness and kurtosis to produce the final feature vector for a patient. This feature vector was used as the input to a cox proportional hazards model that used the least absolute shrinkage and selection operator to identify the most correlated features with DSS along with their coefficients on the training set. Subsequently, the performance of the signature in stratifying patients was assessed in two external validation cohorts. A first external cohort 1005 included 45 patients who underwent PDAC resection followed by gemcitabine treatment for whom digitally scanned tissue microarrays of tumor specimens were available. A second external cohort 1007 included 161 patients, whose tumors were resected between 1978 and 2008, when adjuvant treatment was not administered as part of the standard of care. To investigate performance beyond the [NT], experiments applying the model in a retrospective cohort of adjuvant-gemcitabine-treated patients and a retrospective cohort of untreated patients were performed. As illustrated in FIGS. 17A-17D, the VPG signature generalizes to external cohorts of gemcitabine-treated patients but not untreated patients.
# resected PDAC tumors = test: DSS of resected PDAC patients receiving gemcitabine, divided into two histological subtypes by the model (Example 3)
# Description: One hundred and thirty-nine (139) whole-slide digitized histological slides corresponding to one hundred and two (102) resected PDAC tumors from a data set were used as a training set. This dataset corresponded to patients that had received either gemcitabine-backbone or 5 FU-backbone chemotherapy as their first-line adjuvant treatment. An AI-based pathology platform such as the one described herein was used to extract nuclei images from tissue regions using segmentation models and compute geometric features of these nuclei. The subsequent features were then correlated with Disease Specific Survival (DSS) in order to construct a signature associated with treatment benefit. The resulting signature was compared against two board certified pathologists using the grade of the digital slides images to classify patients into above or below average DSS buckets.
# [2] = system: resected pancreatic ductal adenocarcinoma (PDAC); test: DSS after adjuvant gemcitabine in resected PDAC, TCGA test set stratified by VPG signature
# Description: Data from three cohorts of patients were utilized for this experiment: a cohort of 93 patients forming a training data set, a cohort of 46 patients forming a first external data set, and a cohort of 161 patients forming a second external data set. The training data set was identified by selecting PDAC patients who had received adjuvant gemcitabine and no 5-fluorouracil. The training data set included available histopathologic images, data on disease specific survival, and demographic details. From the available histopathologic images, the image identified as the diagnostic slide was used for image analysis by the AI-based pathology platform. Scanned histologic images were analyzed through an AI-based pathology platform in accordance with the systems and methods described herein. The process included tissue segmentation, nuclei segmentation, and finally geometric feature extraction. Tissue was segmented via color-based thresholding to remove empty regions of the slide. Patches of size 2132×2132 were extracted from tissue regions and a validated deep learning model developed was used to segment and classify each nucleus automatically into five classes (i.e., Neoplastic, Connective, No-Neoplastic/Epithelial, Necrotic, Inflammatory). Descriptive morphometric features were then computed for each nucleus. Geometric features were then aggregated first at the patch, and subsequently at the patient level using summary statistics including the mean, standard deviation, skewness and kurtosis to produce the final feature vector for a patient. This feature vector was used as the input to a cox proportional hazards model that used the least absolute shrinkage and selection operator to identify the most correlated features with DSS along with their coefficients on the training set. FIG. 9 provides an illustration of a process to construct a histologic signature associated with disease-specific survival (DSS) after adjuvant gemcitabine. A dataset of scanned whole slide images and the associated clinical data from a cohort of 93 PDAC patients treated with adjuvant gemcitabine in The Cancer Genome Atlas (TCGA) was analyzed. The process to construct a histologic signature includes obtaining a slide 901, digitizing a slide 903, and determining the presence or absence of a histologic biomarker 905. Slides may be obtained in step 901 by resection of pancreatic ductal adenocarcinoma (PDAC). The slides may then then be digitized in step 903 by scanning hematoxylin and eosin-stained resection specimens for whole slide images and subsequently performing digital pathology analysis. […]
# resected PDAC = test: DSS and RFS of post-operatively treated resected PDAC patients, external cohort stratified by gemcitabine-response signature (Example 4); conditions: external cohort (45 patients)
# Description: Digitized histological hematoxylin and cosin stained tissue microarray blocks corresponding to post-operatively treated resected PDAC patients from 2011-2015 were used in this experiment. Of the 45 patients, 22 were neoadjuvantly treated with either gemcitabine or 5-FIU backbone cytotoxic chemotherapy. Using the histologic images, the AI-based pathology platform extracted nuclei images from tissue regions using segmentation models and computed geometric features of these nuclei. Patients were stratified by the signature previously associated with gemcitabine response in a dataset into low and high risk groups, and Disease Specific Survival (DSS) and Recurrence Free Survival (RFS) was compared between the stratified groups via Kaplan Meier estimators and log-rank test.
smiles,measurement,setting,value
Nc1ccn([C@@H]2O[C@H](CO)[C@@H](O)C2(F)F)c(=O)n1 [gemcitabine],median time to recurrence,[1]; negative VPG signature,9.1 months
same,median time to recurrence,[1]; positive VPG signature,22.6 months
same,median DSS,"[1]; adjuvant gemcitabine-based therapy, external cohort (n=46), negative VPG signature",16 months
same,median DSS,"[1]; adjuvant gemcitabine-based therapy, external cohort (n=46), positive VPG signature",43.1 months
same,median DSS,"[1]; external cohort, no therapy prior to surgery (n=24), negative VPG signature",12.9 months
same,median DSS,"[1]; external cohort, no therapy prior to surgery (n=24), positive VPG signature",40.2 months
same,median DSS,resected PDAC tumors; first histological subtype (threshold: average expected lifetime),586 days
same,median DSS,resected PDAC tumors; second histological subtype (threshold: average expected lifetime),394 days
same,median DSS,"[2]; TCGA validation subset (47 patients), negative VPG signature",16.0 months
same,median DSS,"[2]; TCGA validation subset (47 patients), positive VPG signature",67.9 months
same,median DSS,"[2]; sub-group of 39 validation patients with RNAseq data, negative VPG signature",16.0 months
same,median DSS,"[2]; sub-group of 39 validation patients with RNAseq data, positive VPG signature",67.9 months
same,median DSS,resected PDAC; high risk group,16 months
same,median RFS,resected PDAC; high risk group,9.1 months
same,median DSS,resected PDAC; low risk group,43 months
same,median RFS,resected PDAC; low risk group,22.6 months
